{"source": "paper PMC12328218", "about": "(Nature, 2025)", "format_in_all_cases": "cell-based, Mycobacterium tuberculosis", "key": {"[1]": {"tested_on": "M. tuberculosis H37Rv CRISPRi PurF low knockdown strain", "test": "microbe, parasite or virus in culture"}, "[2]": {"tested_on": "M. tuberculosis CRISPRi purF knockdown strains"}, "[3]": {"tested_on": "JNJ-6640-treated M. tuberculosis"}}, "note": "Read-outs that look alike come from different tables or passages of the source.", "data": [{"smiles": "COc1nc2ccc(Br)cc2cc1[C@@H](c1ccccc1)[C@@](O)(CCN(C)C)c1cccc2ccccc12", "note": "[Bedaquiline]", "values": [{"measurement": "EC50", "setting": "[1]", "value": 44, "unit": "nM"}, {"measurement": "change in susceptibility following purF transcript knockdown", "setting": "[1]", "value": "no change"}, {"measurement": "EC50", "setting": "[1]; Mycobacterium tuberculosis, H37RV", "value": 61, "unit": "nM"}]}, {"smiles": "Nc1ncnc2[nH]cnc12", "note": "[Adenine]", "values": [{"measurement": "effect on rescue of purF knockdown", "setting": "[2]", "value": "limited effect"}, {"measurement": "effect of nucleobase addition on JNJ-6640-treated M. tuberculosis", "setting": "[3]", "value": "no substantial effect"}]}, {"smiles": "Nc1nc2nc[nH]c2c(=O)[nH]1", "note": "[Guanine]", "values": [{"measurement": "effect of nucleobase addition on JNJ-6640-treated M. tuberculosis", "setting": "[3]", "value": "no substantial effect"}]}, {"smiles": "O=c1[nH]cnc2nc[nH]c12", "note": "[Hypoxanthine]", "values": [{"measurement": "concentration partially rescuing inhibition of de novo purine biosynthesis", "setting": "[2]", "value": "exceeding 0.1 mM"}, {"measurement": "effect of nucleobase addition on JNJ-6640-treated M. tuberculosis", "setting": "[3]", "value": "rescue"}, {"measurement": "rescue of JNJ-6640 activity", "setting": "[3]", "value": "rescues JNJ-6640 activity"}]}, {"smiles": "O=c1[nH]c(=O)c2nc[nH]c2[nH]1", "note": "[Xanthine]", "values": [{"measurement": "effect of nucleobase addition on JNJ-6640-treated M. tuberculosis", "setting": "[3]", "value": "no substantial effect"}]}]}
